Results as given in ChEMBL document CHEMBL1152793, “Targeted delivery of compounds to Trypanosoma brucei using the melamine motif” (Bioorg Med Chem, 2009).
The source made the active and inactive calls. The calls are words filed in the database; no cut-off is given here.

Legend:
[1] = system: Trypanosoma brucei brucei; assay: Antitrypanosomal activity against wild type Trypanosoma brucei brucei s427 after 48 hrs by alamar blue assay; format: functional, organism-based; conditions: s427, 48 h
[2] = system: Trypanosoma brucei brucei; assay: Antitrypanosomal activity against TbAT1 knock out Trypanosoma brucei brucei mutant after 48 hrs by alamar blue assay; format: functional, organism-based
[3] = system: Trypanosoma brucei brucei; assay: Antitrypanosomal activity against TbAT1 knock out and pentamidine-resistant Trypanosoma brucei brucei B48 mutant after 48 hrs by alamar blue assay; format: functional, organism-based
[4] = system: Trypanosoma brucei brucei; assay: Inhibition of DNA replication in wild type Trypanosoma brucei brucei s427 assessed as kinetoplast disintegrate at IC50 after 24 hrs by DAPI staining visualized by fluorescence microscopy; format: functional, organism-based
[5] = system: Trypanosoma brucei brucei; assay: Resistance factor, ratio of IC50 for TbAT1 knock out and pentamidine-resistant Trypanosoma brucei brucei B48 mutant to IC50 for wild type Trypanosoma brucei brucei s427; format: functional
[6] = system: Trypanosoma brucei brucei; assay: Resistance factor, ratio of IC50 for TbAT1 knock out Trypanosoma brucei brucei mutant to IC50 for wild type Trypanosoma brucei brucei s427; format: functional

Row | SMILES | IC50 [1] [µM] | IC50 [2] [µM] | IC50 [3] [µM] | Activity [4] | Ratio IC50 [5] | Ratio IC50 [6]
1 | Nc1nc(N)nc(NCCCO)n1 | > 100 | > 100 | > 100 |  |  | 
2 | NCCCC(N)(C(=O)OCCCNc1nc(N)nc(N)n1)C(F)F (stereo not drawn) | > 100 | > 100 | > 100 |  |  | 
3 | CCn1cc(C(=O)O)c(=O)c2cc(F)c(N3CCN(c4nc(N)nc(N)n4)CC3)cc21 | 5.2 | 32.7 | 27.7 | inactive | 5.3 | 6.3
4 | NCCCNc1nc(N)nc(N)n1 | > 100 | > 100 | > 100 |  |  | 
5 | Nc1nc(N)nc(NCCCC(N)(C(=O)O)C(F)F)n1 (stereo not drawn) | > 100 |  |  |  |  | 
6 | CC(C)(C)OC(=O)NCCCC(N)(C(=O)OCCCNc1nc(N)nc(N)n1)C(F)F (stereo not drawn) | 382 | 400 | 888 |  | 2.3 | 1
7 | CC1COc2c(N3CCN(C)CC3)c(F)cc3c(=O)c(C(=O)O)cn1c23 (stereo not drawn) [OFLOXACIN] | > 100 |  |  |  |  | 
8 | C[C@@H]1CN(c2c(F)c(N)c3c(=O)c(C(=O)O)cn(C4CC4)c3c2F)C[C@H](C)N1 [SPARFLOXACIN] | 18.5 |  |  |  |  | 
9 | CC1COc2c(N3CCN(C)CC3)c(F)cc3c(=O)c(C(=O)OCCCNc4nc(N)nc(N)n4)cn1c23 (stereo not drawn) | 31.6 | 35.7 | 31.5 |  | 1 | 1.1
10 | CC1COc2c(N3CCN(C)CC3)c(F)cc3c(=O)c(C(=O)NCCCNc4nc(N)nc(N)n4)cn1c23 (stereo not drawn) | 112 | > 100 | > 100 |  |  | 
11 | C[C@H]1[C@H](OC(=O)CCC(=O)O)O[C@@H]2O[C@@]3(C)CC[C@H]4[C@H](C)CC[C@@H]1[C@@]24OO3 [ARTESUNATE] | 12.8 | 15 | 27.5 |  | 2.1 | 1.2
12 | C[C@H]1[C@H](OC(=O)CCC(=O)OCCCNc2nc(N)nc(N)n2)O[C@@H]2O[C@@]3(C)CC[C@H]4[C@H](C)CC[C@@H]1[C@@]24OO3 | 4 | 5 | 12.1 |  | 3 | 1.2
13 | CC(C)(C)OC(=O)NCCCC(N)(C(=O)NCCCNc1nc(N)nc(N)n1)C(F)F (stereo not drawn) | 355 | 105 | > 100 |  |  | 0.3
14 | NCCCC(N)(C(=O)NCCCNc1nc(N)nc(N)n1)C(F)F (stereo not drawn) | > 100 | > 100 | > 100 |  |  | 
15 | Nc1nc(N)nc(N2CCN(c3cc4c(cc3F)c(=O)c(C(=O)O)cn4C3CC3)CC2)n1 | 4940 |  |  |  |  | 
16 | CCn1cc(C(=O)O)c(=O)c2cc(F)c(N3CCNCC3)cc21 [NORFLOXACIN] | 39.9 |  |  | Active |  | 
17 | CCn1cc(C(=O)O)c(=O)c2cc(F)c(N3CCNC(C)C3)c(F)c21 (stereo not drawn) [LOMEFLOXACIN] | 197 |  |  |  |  | 
18 | O=C(O)c1cn(C2CC2)c2cc(N3CCNCC3)c(F)cc2c1=O [CIPROFLOXACIN] | 17.2 |  |  |  |  | 
19 | C[C@H]1[C@H](OC(=O)CCC(=O)NCCCNc2nc(N)nc(N)n2)O[C@@H]2O[C@@]3(C)CC[C@H]4[C@H](C)CC[C@@H]1[C@@]24OO3 | 2.6 | 2.9 | 7.1 |  | 2.7 | 1.1
